Measurements from ChEMBL document CHEMBL1155507, “Synthesis, SAR and evaluation of [1,4']-bipiperidinyl-4-yl-imidazolidin-2-one derivatives as novel CCR5 antagonists” (Bioorg Med Chem Lett, 2010).

Assays:
[1] = Half life in rat at 1 mg/kg, iv; type: ADME, organism-based; set-up: dose 1 mg/kg, route intravenous; settings: in vivo
[2] = Permeability from apical to basolateral side of human Caco-2 cells after 21 days; type: ADME, cell-based; settings: read-out: permeability
[3] = biological target: C-C chemokine receptor type 5 (Homo sapiens, UniProt P51681); test: Binding affinity at CCR5 receptor by radiolabeled RANTES binding assay
[4] = Cmax in rat at 1 mg/kg, po; type: ADME, organism-based; set-up: dose 1 mg/kg, route oral; settings: in vivo
[5] = system: Human immunodeficiency virus 1; test: Antiviral activity against HIV1 NL4-3 infected in human JC53-BL cells assessed as luciferase activity after 3 days post infection; type: functional, organism-based; settings: Human immunodeficiency virus 1, NL4-3, JC53BL, 72 h
Rattus norvegicus [6] = test: (§1) Oral bioavailability in rat at 1 mg/kg; type: ADME, organism-based; settings: in vivo
Rattus norvegicus [7] = test: (§2) AUC in rat at 1 mg/kg, po; type: ADME, organism-based, Plasma; set-up: dose 1 mg/kg, route oral; settings: in vivo
Caco-2 = test: Efflux ratio of permeability from basolateral to apical over apical to basolateral side in human Caco-2 cells after 21 days; type: ADME, cell-based; settings: caco-2, 504 h
[8] = Intrinsic clearance in human liver microsomes per mg of protein; type: ADME, Microsome
Liver microsomes = test: Intrinsic clearance in rat liver microsomes; type: ADME, Microsome
[9] = AUC in cynomolgus monkey at 1 mg/kg, po; type: ADME, organism-based, Macaca fascicularis; set-up: dose 1 mg/kg, route oral; settings: plasma
[10] = Oral bioavailability in cynomolgus monkey at 1 mg/kg; type: ADME, organism-based, Macaca fascicularis; settings: in vivo
[11] = Clearance in cynomolgus monkey at 1 mg/kg, iv; type: ADME, organism-based, Macaca fascicularis; set-up: dose 1 mg/kg, route intravenous; settings: in vivo
[12] = Half life in cynomolgus monkey at 1 mg/kg, iv; type: ADME, organism-based, Macaca fascicularis; set-up: dose 1 mg/kg, route intravenous; settings: in vivo
[13] = Intrinsic clearance in cynomolgus monkey liver microsomes; type: ADME, Macaca fascicularis, Microsome
[14] = Cmax in cynomolgus monkey at 1 mg/kg, po; type: ADME, organism-based, Macaca fascicularis; set-up: dose 1 mg/kg, route oral; settings: in vivo
[15] = as §1; type: ADME, organism-based; settings: in vivo
[16] = as §2; type: ADME, organism-based, Plasma; set-up: dose 1 mg/kg, route oral; settings: plasma
[17] = Clearance in rat at 1 mg/kg, iv; type: ADME, organism-based; set-up: dose 1 mg/kg, route intravenous; settings: in vivo
hERG (KCNH2) = hERG (KCNH2) (Homo sapiens, UniProt Q12809); test: Inhibition of human ERG by patch clamp technique
hERG (KCNH2), sequence (Q12809 whole entry): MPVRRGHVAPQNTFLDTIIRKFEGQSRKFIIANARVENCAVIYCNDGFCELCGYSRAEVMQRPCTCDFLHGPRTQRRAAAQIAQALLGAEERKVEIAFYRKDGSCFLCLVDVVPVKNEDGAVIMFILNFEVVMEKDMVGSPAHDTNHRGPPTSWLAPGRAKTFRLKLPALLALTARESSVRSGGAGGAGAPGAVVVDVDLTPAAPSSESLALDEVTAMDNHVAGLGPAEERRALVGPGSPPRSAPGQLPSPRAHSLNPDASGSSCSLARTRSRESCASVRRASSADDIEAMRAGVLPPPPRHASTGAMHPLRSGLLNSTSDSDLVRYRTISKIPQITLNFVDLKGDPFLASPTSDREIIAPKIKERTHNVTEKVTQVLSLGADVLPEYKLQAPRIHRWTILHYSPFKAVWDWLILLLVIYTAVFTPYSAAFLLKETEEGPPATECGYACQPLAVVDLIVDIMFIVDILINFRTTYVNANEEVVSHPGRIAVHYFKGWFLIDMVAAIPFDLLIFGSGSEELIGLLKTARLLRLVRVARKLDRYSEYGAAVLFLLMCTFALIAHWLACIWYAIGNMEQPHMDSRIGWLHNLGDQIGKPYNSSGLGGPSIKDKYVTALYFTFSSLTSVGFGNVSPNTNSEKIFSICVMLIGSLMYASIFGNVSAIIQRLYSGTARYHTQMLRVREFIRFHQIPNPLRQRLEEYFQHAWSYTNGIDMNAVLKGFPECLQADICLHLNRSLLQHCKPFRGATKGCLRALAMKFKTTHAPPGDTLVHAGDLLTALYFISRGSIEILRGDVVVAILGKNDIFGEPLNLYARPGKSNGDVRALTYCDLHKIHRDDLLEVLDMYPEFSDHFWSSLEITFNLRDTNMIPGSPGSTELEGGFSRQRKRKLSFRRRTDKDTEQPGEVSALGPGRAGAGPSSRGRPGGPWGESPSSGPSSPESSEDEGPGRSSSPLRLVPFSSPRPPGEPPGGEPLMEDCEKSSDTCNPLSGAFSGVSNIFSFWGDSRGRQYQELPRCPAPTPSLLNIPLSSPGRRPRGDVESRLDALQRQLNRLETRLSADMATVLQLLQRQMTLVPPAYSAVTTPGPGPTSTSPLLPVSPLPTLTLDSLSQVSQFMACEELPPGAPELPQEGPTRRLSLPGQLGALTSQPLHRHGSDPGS

C-C chemokine receptor type 5, sequence (P51681 whole entry): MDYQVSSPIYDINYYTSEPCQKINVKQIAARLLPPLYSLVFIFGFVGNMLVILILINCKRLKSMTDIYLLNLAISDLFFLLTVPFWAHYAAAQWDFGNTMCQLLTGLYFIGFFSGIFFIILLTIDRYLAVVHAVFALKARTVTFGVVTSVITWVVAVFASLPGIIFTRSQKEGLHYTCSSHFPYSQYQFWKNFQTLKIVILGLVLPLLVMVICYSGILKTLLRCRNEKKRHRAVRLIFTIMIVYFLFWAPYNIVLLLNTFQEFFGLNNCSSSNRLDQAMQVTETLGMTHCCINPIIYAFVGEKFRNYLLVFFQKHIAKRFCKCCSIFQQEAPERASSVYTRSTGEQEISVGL

Compound	Papp A→B [2] [×10⁻⁶ cm/s]	IC50 [3] [nM]	IC50 [5] [nM]	Ratio (Caco-2)	microsomal CLint [8] [µL/min/mg]	further results
Cc1cc(C#N)nc(C)c1C(=O)N1CCC(C)(N2CCC(N3C(=O)N(C4CCOCC4)C[C@H]3c3ccccc3)CC2)CC1	1	21	7	12	15	half-life [1]: 5.7 h; Cmax [4]: 43 ng/mL; F (Rattus norvegicus [6]): 23%; AUC (Rattus norvegicus [7]): 85 ng·h/mL; CL (Liver microsomes): 55 µL/min
CCO[C@H]1CC[C@H](CN2C[C@@H](c3ccccc3)N(C3CCN(C4(C)CCN(C(=O)c5c(C)ncnc5C)CC4)CC3)C2=O)CC1	3	6	3	4	47	half-life [1]: 0.8 h; Cmax [4]: 21 ng/mL; bioavailability [15]: 10%; AUC [16]: 49 ng·h/mL; clearance [17]: 65 mL/min/kg; CL (Liver microsomes): 89 µL/min
CNC(=O)N1CCC(CN2C[C@@H](c3ccccc3)N(C3CCN(C4(C)CCN(C(=O)c5c(C)ncnc5C)CC4)CC3)C2=O)CC1	0.1	32	99	13	13	
Cc1ncnc(C)c1C(=O)N1CCC(C)(N2CCC(N3C(=O)N(CC4CCOCC4)C[C@@H]3c3ccccc3)CC2)CC1		> 500	> 650			
Cc1cc(C#N)nc(C)c1C(=O)N1CCC(C)(N2CCC(N3C(=O)N(CC4CCOCC4)C[C@H]3c3ccccc3)CC2)CC1	1	12	2	20	57	
Cc1cc(C#N)nc(C)c1C(=O)N1CCC(C)(N2CCC(N3C(=O)N(C)C[C@H]3c3ccccc3)CC2)CC1	0.6	24	22	25	44	
Cc1cc(C#N)nc(C)c1C(=O)N1CCC(C)(N2CCC(N3C(=O)N(C4CCOCC4)CC3c3ccccc3)CC2)CC1 (racemic)						AUC [9]: 418 ng·h/mL; bioavailability [10]: 42%; clearance [11]: 17 mL/min/kg; half-life [12]: 1.9 h; microsomal CLint [13]: 33 µL/min/mg; IC20 (hERG (KCNH2)): 3500 nM; Cmax [14]: 133 ng/mL
CCCCC1CN(C2CCOCC2)C(=O)N1C1CCN(C2(C)CCN(C(=O)c3c(C)ncnc3C)CC2)CC1 (racemic)	0.4	84	> 625	52	9	
Cc1cc(C#N)nc(C)c1C(=O)N1CCC(C)(N2CCC(N3C(=O)N(C[C@H]4CC[C@H](O)CC4)C[C@H]3c3ccccc3)CC2)CC1	0.4	33	3	47	34	
Cc1cc(C#N)nc(C)c1C(=O)N1CCC(C)(N2CCC(N3C(=O)N(CC4CCOCC4)C[C@@H]3c3ccccn3)CC2)CC1	0.1	12	22	77	18	half-life [1]: 1 h; Cmax [4]: 38 ng/mL; bioavailability [15]: 19%; AUC [16]: 187 ng·h/mL; clearance [17]: 29 mL/min/kg; CL (Liver microsomes): 87 µL/min
COC(=O)N1CCC(CN2C[C@@H](c3ccccc3)N(C3CCN(C4(C)CCN(C(=O)c5c(C)ncnc5C)CC4)CC3)C2=O)CC1	0.3		26	56	155	
CO[C@H]1CC[C@H](CN2C[C@@H](c3ccccc3)N(C3CCN(C4(C)CCN(C(=O)c5c(C)ncnc5C)CC4)CC3)C2=O)CC1	1.4	62	8	13	69	
Cc1ncnc(C)c1C(=O)N1CCC(C)(N2CCC(N3C(=O)N(CC4CCOCC4)CC3c3ccccc3)CC2)CC1 (racemic)	0.4	27	47	33	31	half-life [1]: 1.5 h; Cmax [4]: 56 ng/mL; bioavailability [15]: 27%; IC20 (hERG (KCNH2)): 22000 nM; AUC [16]: 189 ng·h/mL; clearance [17]: 44 mL/min/kg; CL (Liver microsomes): 14 µL/min

The next lines start with results.

Papp A→B [2] [×10⁻⁶ cm/s]	IC50 [3] [nM]	IC50 [5] [nM]	Ratio (Caco-2)	microsomal CLint [8] [µL/min/mg]	Compound	further results
0.5	20	32	29	16	Cc1ncnc(C)c1C(=O)N1CCC(C)(N2CCC(N3C(=O)N(CC4CCOCC4)C[C@H]3c3ccccc3)CC2)CC1	AUC [9]: 55 ng·h/mL; bioavailability [10]: 14%; clearance [11]: 39 mL/min/kg; half-life [12]: 1.9 h; microsomal CLint [13]: 65 µL/min/mg; Cmax [14]: 16 ng/mL
0.6		> 625	28	8	Cc1ncnc(C)c1C(=O)N1CCC(C)(N2CCC(N3C(=O)N(C4CCOCC4)C[C@H]3c3ccccc3)CC2)CC1	
0.7	26	25	10	53	CNC(=O)N1CCC(CN2C[C@@H](c3ccccc3)N(C3CCN(C4(C)CCN(C(=O)c5c(C)cc(C#N)nc5C)CC4)CC3)C2=O)CC1	
0.2	34	7	38	224	Cc1ncnc(C)c1C(=O)N1CCC(C)(N2CCC(N3C(=O)N(CC4CCN(S(C)(=O)=O)CC4)C[C@H]3c3ccccc3)CC2)CC1	
0.2	20	8	61	12	Cc1ncnc(C)c1C(=O)N1CCC(C)(N2CCC(N3C(=O)N(C[C@H]4CC[C@H](O)CC4)C[C@H]3c3ccccc3)CC2)CC1	
0.8	8	25	24	96	Cc1ncnc(C)c1C(=O)N1CCC(C)(N2CCC(N3C(=O)N(CCC4CCOCC4)C[C@H]3c3ccccc3)CC2)CC1	
0.5	25	9	30	40	CCO[C@H]1CC[C@H](CN2C[C@H](c3ccccn3)N(C3CCN(C4(C)CCN(C(=O)c5c(C)cc(C#N)nc5C)CC4)CC3)C2=O)CC1	
1	65	41	14	20	CCCCC1CN(C2CCOCC2)C(=O)N1C1CCN(C2(C)CCN(C(=O)c3c(C)cc(C#N)nc3C)CC2)CC1 (racemic)	
0.4	43	335	40	36	CCCCC1CN(CC2CCOCC2)C(=O)N1C1CCN(C2(C)CCN(C(=O)c3c(C)ncnc3C)CC2)CC1 (racemic)	
